Drawing on ChEMBL document CHEMBL1240533, “Selectivity and potency of cyclin-dependent kinase inhibitors” (AAPS J, 2006), this text covers IC50 for 15 compounds.

Each structure is given as a SMILES string. Where only a bound is given, the exact number is not on record here.

Chain of Cyclin-dependent kinase 5 (Q00535 whole entry): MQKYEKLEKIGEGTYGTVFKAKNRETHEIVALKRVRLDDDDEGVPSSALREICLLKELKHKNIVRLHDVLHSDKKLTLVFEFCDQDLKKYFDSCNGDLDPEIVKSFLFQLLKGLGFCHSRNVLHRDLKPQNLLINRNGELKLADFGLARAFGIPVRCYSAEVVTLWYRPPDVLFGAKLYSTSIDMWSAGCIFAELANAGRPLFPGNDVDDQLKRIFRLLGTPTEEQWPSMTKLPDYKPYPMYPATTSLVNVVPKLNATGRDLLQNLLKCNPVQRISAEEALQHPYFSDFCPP
Chain of Cyclin-dependent kinase 6 (Q00534 whole entry): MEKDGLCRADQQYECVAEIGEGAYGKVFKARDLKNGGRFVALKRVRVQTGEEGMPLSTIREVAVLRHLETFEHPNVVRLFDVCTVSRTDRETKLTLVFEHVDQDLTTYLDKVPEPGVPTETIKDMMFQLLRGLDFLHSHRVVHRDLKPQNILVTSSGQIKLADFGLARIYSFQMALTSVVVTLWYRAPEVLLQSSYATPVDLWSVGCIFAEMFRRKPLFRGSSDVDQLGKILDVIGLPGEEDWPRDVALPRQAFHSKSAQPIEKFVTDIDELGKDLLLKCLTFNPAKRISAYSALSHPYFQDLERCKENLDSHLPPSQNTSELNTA

The target of the first test is Cyclin-dependent kinase 4 (Homo sapiens, UniProt P11802).
Chain of Cyclin-dependent kinase 4 (P11802 whole entry): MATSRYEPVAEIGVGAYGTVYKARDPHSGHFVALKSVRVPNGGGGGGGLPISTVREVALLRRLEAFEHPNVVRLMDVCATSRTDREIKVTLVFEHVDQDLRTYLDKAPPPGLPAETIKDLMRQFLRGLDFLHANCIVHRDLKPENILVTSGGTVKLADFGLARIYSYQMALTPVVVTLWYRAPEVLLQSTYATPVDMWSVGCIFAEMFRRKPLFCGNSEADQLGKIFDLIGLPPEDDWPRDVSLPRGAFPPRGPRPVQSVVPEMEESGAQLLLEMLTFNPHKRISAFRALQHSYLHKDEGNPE
For `O=C(Cc1ccc2ccccc2c1)Nc1cc(C2CC2)n[nH]1`, the IC50 was > 10000 nM.

In the case of `O=C1C(c2c(O)[nH]c3ccc(S(=O)(=O)O)cc23)=Nc2ccccc21`, inhibition was half-maximal at 200 nM (IC50).

For `Cc1ccc(F)c(Nc2nccc(-c3ccc(S(N)(=O)=O)cc3)n2)c1`, it took 150 nM to reach half-maximal inhibition (IC50).

In the case of `CCCCOc1c(C(=O)c2c(F)cc(C)cc2F)ccc2[nH]ncc12`, the IC50 amounted to 2700 nM.

Compound `Nc1nc2ccc(C(=O)c3c(F)cccc3Cl)cc2n1Cc1c(F)cccc1F` showed an IC50 of 810 nM.

The compound `CN(C)CCNS(=O)(=O)c1ccc(Nc2cccc(-c3cnc4ccccn34)c2)cc1` yielded an IC50 of 260 nM.

For the compound `CC(C)(C)Nc1nc(C(F)(F)F)nc2ccc(Nc3ccccc3)cc12`, the IC50 was > 2100 nM.

Compound `O=C(Nc1ccccn1)Nc1cccc2c1[C@H]1CCCN1C2=O` returned an IC50 of 2 nM.

As for `Nc1nc(N)c(N=O)c(=O)[nH]1`, the IC50 amounted to 230 nM.

In the case of `O=C1Cc2c([nH]c3ccc([N+](=O)[O-])cc23)-c2ccccc2N1` [ALSTERPAULLONE], the IC50 was > 10000 nM.

A further test concerns the target Cyclin-dependent kinase 6 (Homo sapiens, UniProt Q00534).
Regarding `CCNc1cc(N[C@H]2CC[C@@H](O)CC2)nc(Nc2ccc3c(ccn3Cc3ccccc3)c2)n1`, the IC50 was 5600 nM.

The target in another test is Cyclin-dependent kinase 2/cyclin A (Homo sapiens, UniProt P24941). It counts as protein-complex assay.
Description: Inhibition of CDK2/cyclin A
`CC(=O)N[C@@H](CCCN=C(N)N)C(=O)N[C@@H](CCCN=C(N)N)C(=O)N[C@@H](CC(C)C)C(=O)N[C@@H](CC(N)=O)C(=O)N[C@@H](Cc1ccccc1)C(N)=O`: the half-inhibitory concentration (IC50) was > 50000 nM.

The next test concerns the target Cyclin-dependent kinase 5 (Homo sapiens, UniProt Q00535).
As for `O=C(Nc1cc(C2CCC2)c[nH]1)Nc1cccc2ccncc12`, the IC50 was 5 nM.

In turn, `CC1(C)CC2(C)Nc3cc(-c4ccc5c(c4)NC4(C)CC(C)(C)NC(=S)N54)ccc3N2C(=S)N1` (stereo unspecified) came in with an IC50 of 25000 nM.

In turn, `CCNc1cc(N[C@H]2CC[C@@H](O)CC2)nc(Nc2ccc3c(ccn3Cc3ccccc3)c2)n1` had an IC50 of 25000 nM.

With `COc1ccc(-c2[nH]nc3c2C(=O)c2c(NC(=O)NNC(=O)c4ccc(O)cc4)cccc2-3)cc1`, it took 5 nM to reach half-maximal inhibition (IC50).

Broadly, the IC50 is the concentration that inhibits the measured activity by half.
